Experimental data: ChEMBL document CHEMBL1201862, “PubChem BioAssay data set” (2004)
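Results reflect a 48-hour exposure of cells in 96-well plates to compound at five concentrations. GI50: concentration for 50% inhibition of growth.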 Activity calls are given as the source filed them. Rule as the data show it: active = GI50 up to about 1.1 µM and inactive = higher.

Experiments:
Assay in all cases: growth of human tumour cells (NCI), 48 h
786-0 = test system: 786-0
A498 = test system: A498
A549 = test system: A549
ACHN = test system: ACHN
CAKI-1 = test system: CAKI-1
CCRF-CEM = test system: CCRF-CEM
COLO 205 = test system: COLO 205
DLD-1 = test system: DLD-1
DMS-114 = test system: DMS-114
DMS-273 = test system: DMS-273
HCC 2998 = test system: HCC 2998
HCT-116 = test system: HCT-116
HCT-15 = test system: HCT-15
HL-60 = test system: HL-60
HOP-18 = test system: HOP-18
HOP-62 = test system: HOP-62
HOP-92 = test system: HOP-92
HT-29 = test system: HT-29
IGROV-1 = test system: IGROV-1
K562 = test system: K562
KM-20L2 = test system: KM-20L2
KM12 = test system: KM12
LOX IMVI = test system: LOX IMVI
LXFL 529 = test system: LXFL 529
M14 = test system: M14
M19-MEL = test system: M19-MEL
MOLT-4 = test system: MOLT-4
Malme-3M = test system: Malme-3M
NCI-H226 = test system: NCI-H226
NCI-H460 = test system: NCI-H460
NCI-H522 = test system: NCI-H522
OVCAR-4 = test system: OVCAR-4
OVCAR-5 = test system: OVCAR-5
OVCAR-8 = test system: OVCAR-8
RPMI-8226 = test system: RPMI-8226
RXF 393 = test system: RXF 393
RXF 631 = test system: RXF 631
SF-268 = test system: SF-268
SF-295 = test system: SF-295
SF-539 = test system: SF-539
SK-MEL-2 = test system: SK-MEL-2
SK-MEL-5 = test system: SK-MEL-5
SK-OV-3 = test system: SK-OV-3
SN12C = test system: SN12C
SNB-19 = test system: SNB-19
SNB-75 = test system: SNB-75
SNB-78 = test system: SNB-78
SR = test system: SR
SW-620 = test system: SW-620
TK-10 = test system: TK-10
U-251 = test system: U-251
UACC-257 = test system: UACC-257
UACC-62 = test system: UACC-62
UO-31 = test system: UO-31
EKVX = test system: EKVX
NCI-H23 = test system: NCI-H23
OVCAR-3 = test system: OVCAR-3
SK-MEL-28 = test system: SK-MEL-28
XF498 = test system: XF498

O=C(C(=O)N1CC2C=CC1CC2)c1c[nH]c2ccccc12 (stereo not drawn)
GI50 (786-0): > 100 µM (inactive)
GI50 (A498): > 100 µM (inactive)
GI50 (A549): > 100 µM (inactive)
GI50 (ACHN): > 100 µM (inactive)
GI50 (CAKI-1): > 100 µM (inactive)
GI50 (CCRF-CEM): > 100 µM (inactive)
GI50 (COLO 205): > 100 µM (inactive)
GI50 (DLD-1): > 100 µM (inactive)
GI50 (DMS-114): > 100 µM (inactive)
GI50 (DMS-273): > 100 µM (inactive)
GI50 (HCC 2998): > 100 µM (inactive)
GI50 (HCT-116): > 100 µM (inactive)
GI50 (HCT-15): > 100 µM
GI50 (HL-60): > 100 µM (inactive)
GI50 (HOP-18): > 100 µM (inactive)
GI50 (HOP-62): > 100 µM (inactive)
GI50 (HOP-92): > 100 µM (inactive)
GI50 (HT-29): > 100 µM (inactive)
GI50 (IGROV-1): > 100 µM (inactive)
GI50 (K562): > 100 µM (inactive)
GI50 (KM-20L2): > 100 µM (inactive)
GI50 (KM12): > 100 µM (inactive)
GI50 (LOX IMVI): > 100 µM (inactive)
GI50 (LXFL 529): > 100 µM (inactive)
GI50 (M14): > 100 µM (inactive)
GI50 (M19-MEL): > 100 µM (inactive)
GI50 (MOLT-4): > 100 µM (inactive)
GI50 (Malme-3M): > 100 µM (inactive)
GI50 (NCI-H226): > 100 µM (inactive)
GI50 (NCI-H460): > 100 µM (inactive)
GI50 (NCI-H522): > 100 µM (inactive)
GI50 (OVCAR-4): > 100 µM (inactive)
GI50 (OVCAR-5): > 100 µM (inactive)
GI50 (OVCAR-8): > 100 µM (inactive)
GI50 (RPMI-8226): > 100 µM (inactive)
GI50 (RXF 393): > 100 µM (inactive)
GI50 (RXF 631): > 100 µM (inactive)
GI50 (SF-268): > 100 µM (inactive)
GI50 (SF-295): > 100 µM (inactive)
GI50 (SF-539): > 100 µM (inactive)
GI50 (SK-MEL-2): > 100 µM (inactive)
GI50 (SK-MEL-5): > 100 µM (inactive)
GI50 (SK-OV-3): > 100 µM (inactive)
GI50 (SN12C): > 100 µM (inactive)
GI50 (SNB-19): > 100 µM (inactive)
GI50 (SNB-75): 82.4 µM (inactive)
GI50 (SNB-78): > 100 µM (inactive)
GI50 (SR): > 100 µM (inactive)
GI50 (SW-620): > 100 µM (inactive)
GI50 (TK-10): > 100 µM (inactive)
GI50 (U-251): > 100 µM (inactive)
GI50 (UACC-257): > 100 µM (inactive)
GI50 (UACC-62): > 100 µM (inactive)
GI50 (UO-31): > 100 µM (inactive)

N/N=C1\C(=O)N(c2ccc(Cl)cc2Cl)C(=O)C(=O)C1c1nc2ccccc2o1 (stereo not drawn)
GI50 (786-0): > 100 µM (inactive)
GI50 (A498): > 100 µM (inactive)
GI50 (A549): > 100 µM (inactive)
GI50 (ACHN): > 100 µM (inactive)
GI50 (CAKI-1): > 100 µM (inactive)
GI50 (CCRF-CEM): 57.5 µM (inactive)
GI50 (COLO 205): > 100 µM (inactive)
GI50 (DLD-1): > 100 µM (inactive)
GI50 (DMS-114): > 100 µM (inactive)
GI50 (DMS-273): > 100 µM (inactive)
GI50 (EKVX): > 100 µM (inactive)
GI50 (HCC 2998): > 100 µM (inactive)
GI50 (HCT-116): > 100 µM (inactive)
GI50 (HCT-15): > 100 µM
GI50 (HL-60): > 100 µM (inactive)
GI50 (HOP-18): > 100 µM (inactive)
GI50 (HOP-62): > 100 µM (inactive)
GI50 (HOP-92): > 100 µM (inactive)
GI50 (HT-29): > 100 µM (inactive)
GI50 (IGROV-1): > 100 µM (inactive)
GI50 (K562): > 100 µM (inactive)
GI50 (KM-20L2): > 100 µM (inactive)
GI50 (KM12): > 100 µM (inactive)
GI50 (LOX IMVI): 97.7 µM (inactive)
GI50 (LXFL 529): > 100 µM (inactive)
GI50 (M14): > 100 µM (inactive)
GI50 (M19-MEL): > 100 µM (inactive)
GI50 (MOLT-4): > 100 µM (inactive)
GI50 (Malme-3M): > 100 µM (inactive)
GI50 (NCI-H226): > 100 µM (inactive)
GI50 (NCI-H23): > 100 µM (inactive)
GI50 (NCI-H460): > 100 µM (inactive)
GI50 (NCI-H522): > 100 µM (inactive)
GI50 (OVCAR-3): > 100 µM (inactive)
GI50 (OVCAR-4): > 100 µM (inactive)
GI50 (OVCAR-5): > 100 µM (inactive)
GI50 (OVCAR-8): > 100 µM (inactive)
GI50 (RPMI-8226): > 100 µM (inactive)
GI50 (RXF 631): > 100 µM (inactive)
GI50 (SF-268): > 100 µM (inactive)
GI50 (SF-295): > 100 µM (inactive)
GI50 (SF-539): > 100 µM (inactive)
GI50 (SK-MEL-28): > 100 µM (inactive)
GI50 (SK-MEL-2): 95.7 µM (inactive)
GI50 (SK-MEL-5): > 100 µM (inactive)
GI50 (SK-OV-3): > 100 µM (inactive)
GI50 (SN12C): > 100 µM (inactive)
GI50 (SNB-19): > 100 µM (inactive)
GI50 (SNB-75): > 100 µM (inactive)
GI50 (SNB-78): > 100 µM (inactive)
GI50 (SW-620): > 100 µM (inactive)
GI50 (TK-10): > 100 µM (inactive)
GI50 (U-251): > 100 µM (inactive)
GI50 (UACC-257): > 100 µM (inactive)
GI50 (UACC-62): 11.4 µM (inactive)
GI50 (UO-31): 48.3 µM (inactive)

COc1cc2c(c(OC)c1OC)-c1ccc(SC)c(=O)cc1C(CC(=O)Oc1ccc([N+](=O)[O-])cc1)C2 (stereo not drawn)
GI50 (A498): 0.0469 µM (active)
GI50 (A549): 0.123 µM (active)
GI50 (CAKI-1): 0.207 µM (active)
GI50 (CCRF-CEM): 0.0792 µM (active)
GI50 (DMS-114): 0.0902 µM (active)
GI50 (EKVX): 7.29 µM (inactive)
GI50 (HCC 2998): 0.119 µM (active)
GI50 (HCT-15): 0.78 µM
GI50 (HL-60): 0.226 µM (active)
GI50 (HOP-18): > 33.5 µM (inactive)
GI50 (HOP-62): 4.44 µM (inactive)
GI50 (HOP-92): 0.762 µM (active)
GI50 (IGROV-1): 0.344 µM (active)
GI50 (K562): < 0.0444 µM (active)
GI50 (KM-20L2): 0.0476 µM (active)
GI50 (M14): 0.0607 µM (active)
GI50 (M19-MEL): 0.18 µM (active)
GI50 (MOLT-4): 0.113 µM (active)
GI50 (NCI-H226): 0.128 µM (active)
GI50 (NCI-H23): 0.132 µM (active)
GI50 (NCI-H522): 0.0551 µM (active)
GI50 (OVCAR-3): 0.0538 µM (active)
GI50 (OVCAR-4): 3.85 µM (inactive)
GI50 (OVCAR-5): 6.1 µM (inactive)
GI50 (RXF 393): 0.0331 µM (active)
GI50 (RXF 631): < 0.01 µM (active)
GI50 (SF-268): 0.137 µM (active)
GI50 (SK-MEL-28): 0.19 µM (active)
GI50 (SK-MEL-2): 0.336 µM (active)
GI50 (SK-MEL-5): 0.0726 µM (active)
GI50 (SK-OV-3): 0.0207 µM (active)
GI50 (SNB-19): 1.34 µM (inactive)
GI50 (SNB-75): 0.286 µM (active)
GI50 (SNB-78): 0.044 µM (active)
GI50 (TK-10): 4.8 µM (inactive)
GI50 (UACC-257): 0.486 µM (active)
GI50 (UO-31): 1.95 µM (inactive)
GI50 (XF498): 0.0873 µM (active)
